Assay results taken from patent publication US20220025053A1, “Methods of Inhibiting Metastasis in Cancer” (Wisconsin Alumni Research Foundation, priority 2018, published 2022).
Entries after “also recorded” stand apart in the source; their conditions may differ.

Tests used:
CCR5 = CCR5 (Homo sapiens, UniProt P51681); experiment: SELP expression in LP-9 by qRT-PCR, CCR5 inhibition; assay type: cell-based; settings: 100 ng/mL MIP-1β + 10 μg/mL maraviroc, 24 hours
From the text: (§1) RNA extraction and qRT-PCR: RNA was collected and isolated using the Micro-RNeasy® Extraction kit (Qiagen; Valencia, Calif.), and cDNA was synthesized using the Qiagen® First Strand Kit according to manufacturer's instructions. cDNA was mixed with Qiagen® Mastermix and assayed using the Extracellular Matrix and Adhesion Molecules RT2 Profiler PCR Array (Qiagen) in a CFX real time PCR machine (Bio-Rad; Hercules, Calif.) for a total of 40 cycles, using Qiagen's Data Analysis Center for analysis. Data is expressed as fold change, with ±2-fold set as the threshold for significance. qRT-PCR was performed using human primers for SELP, CCR1, and CCR5, and GAPDH (all Qiagen), and mouse primers for Selp (Qiagen) and Aes (IDT; Coralville, Iowa), with SsoAdvanced™ Universal SYBR® Green Supermix (Bio-Rad). Three samples were run in duplicate from each condition.
(§2) Interventions in co-culture model: To determine if P-selectin played a role in adhesion, LP-9 in co-culture devices were treated with 10 μg/mL of anti-P-selectin blocking antibody or monoclonal mouse IgG1 isotype (BioLegend; San Diego, Calif.), or 10 μM of the small molecular inhibitor KF38789 (Tocris; Minneapolis, Minn.) or DMSO (0.0005% v/v) 1 hour prior to the addition of ovarian cancer cells. […]

MEK = experiment: SELP expression in LP-9 by qRT-PCR, MEK inhibition; assay type: cell-based, human; settings: both vehicle and 100 ng/mL MIP-1β treated LP-9, 10 μM PD0325901, 24 hours
From the text: as §1, §2

ovarian cancer xenograft = settings: clodronate to reduce macrophage levels; cited from earlier work
HGSOC = settings: mouse models of HGSOC; cited from earlier work
P-selectin [1] = biological target: T1, P-selectin (Homo sapiens, UniProt P16109); settings: clinical trial; cited from earlier work
T1 sequence (P16109 42-830): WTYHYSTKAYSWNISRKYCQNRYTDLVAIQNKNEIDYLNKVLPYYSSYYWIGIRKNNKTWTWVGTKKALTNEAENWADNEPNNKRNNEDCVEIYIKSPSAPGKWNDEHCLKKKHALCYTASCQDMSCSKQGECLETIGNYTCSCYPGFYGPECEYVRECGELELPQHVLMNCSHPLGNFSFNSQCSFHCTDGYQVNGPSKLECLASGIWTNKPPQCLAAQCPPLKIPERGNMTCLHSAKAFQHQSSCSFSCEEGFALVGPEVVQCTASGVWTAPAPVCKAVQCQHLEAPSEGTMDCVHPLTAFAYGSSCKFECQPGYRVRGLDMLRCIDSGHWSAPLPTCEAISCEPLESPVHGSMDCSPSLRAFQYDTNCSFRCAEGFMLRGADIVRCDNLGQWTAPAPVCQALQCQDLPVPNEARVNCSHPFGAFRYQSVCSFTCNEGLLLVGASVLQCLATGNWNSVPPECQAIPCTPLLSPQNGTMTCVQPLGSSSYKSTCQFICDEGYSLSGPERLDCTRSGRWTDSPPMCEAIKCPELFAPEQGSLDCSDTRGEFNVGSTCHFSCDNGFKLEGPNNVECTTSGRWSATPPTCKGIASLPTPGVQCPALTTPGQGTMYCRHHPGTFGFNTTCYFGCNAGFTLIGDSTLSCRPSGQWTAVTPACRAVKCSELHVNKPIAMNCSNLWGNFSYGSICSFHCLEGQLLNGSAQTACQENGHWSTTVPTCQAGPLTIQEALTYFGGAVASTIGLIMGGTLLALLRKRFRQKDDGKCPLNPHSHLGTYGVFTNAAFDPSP

[2] = administered systemically; cited from earlier work
P-selectin [3] = biological target: T1, P-selectin; experiment: Colorectal cancer cell adhesion to MIP-1β-treated LP-9; assay type: cell-based; parameters: endogenous in cells; host or cells: LP-9 mesothelial cells; settings: LS411N, SW48; 100 ng/mL MIP-1β; KF38789 10 μM
Protocol: The experimental methods are reflective of those previously used to inhibit P-selectin, while used in an adhesion experiment with the colorectal cell lines LS411N and SW48.
The tissue culture plastic within the PDMS ring was coated with 1 μg of PureCol® Collagen I for 2 hours at room temperature. LP-9 were seeded into the PDMS rings to confluency (93,500 cells/cm^2 in 40 μL). Twenty-four hours after seeding, cells were washed with SFM, and 40 μL of fresh SFM containing either vehicle (0.1% BSA) or 100 ng/mL MIP-1β was added for 24 hours. To determine if P-selectin played a role in adhesion, LP-9 were treated with 10 μM of the small molecule P-selectin inhibitor KF38789 or DMSO (0.0005% v/v) 1 hour prior to the addition of colorectal cancer cells. The colorectal cancer cells (LS411N, SW48) were stained with 5 μM CellTracker™ Green CMFDA Dye, dissociated using TrypLE Select Enzyme, and seeded into devices at 10,000 cells/10 μL after 24 hours of mesothelial cell treatment with MIP-1β. Colorectal cancer cells were allowed to adhere for three hours, then coverslips were removed, and devices were washed twice with 2 mL PBS to remove non-adherent cells. […] Percent adhesion was quantified by converting cells/image to total cells/area of the co-culture device and dividing by the number of HGSOC cells added to the device.

P-selectin [4] = biological target: T1, P-selectin; experiment: HGSOC adhesion to LP-9 mesothelial cells in co-culture device, P-selectin inhibition; assay type: cell-based; parameters: endogenous in cells; host or cells: LP-9 mesothelial cells; settings: LP-9 + 100 ng/mL MIP-1β; 10 μM KF38789 1 hour before tumor cells; 3 h adhesion
From the text: (§3) In vitro model of adhesion in transcoelomic metastasis: A co-culture device was modified to construct the in vitro model of metastatic adhesion (FIG. 2). The device includes a PDMS ring that is placed in a well of a 24 well tissue culture plate and a 9×9 mm coverslip placed on top. One or more cell types can be grown within the ring, while another population can be grown on the coverslip. Inverting the coverslip on top of the ring initiates co-culture between the populations. The tissue culture plastic within the PDMS ring was coated with 1 μg of PureCol® Collagen I (Advanced Biomatrix; San Diego, Calif.) for 2 hours at room temperature. LP-9 or LP-3 were seeded into the PDMS rings to confluency (93,500 cells/cm^2 in 40 μL). Twenty-four hours after seeding, cells were washed with SFM, AAM or control coverslips were placed on top of the PDMS ring, and 40 μL of fresh SFM was added. HGSOC cells were stained with 5 μM CellTracker™ Green CMFDA Dye, dissociated using TrypLE™ Select Enzyme, and seeded into devices at 10,000 cells/10 μL after 24 hours of mesothelial cells and AAMs co-culture. […] Percent adhesion was quantified by converting cells/image to total cells/area of the co-culture device and dividing by the number of HGSOC cells added to the device.

P-selectin [5] = biological target: T1, P-selectin; settings: cited from earlier work
LP-9 mesothelial cells = experiment: HGSOC adhesion to LP-9 treated with MIP-1β; assay type: cell-based, human; settings: 100 ng/mL MIP-1β 24 hours, all HGSOC lines
From the text: as §3

Chain of CCR5 (P51681 whole entry): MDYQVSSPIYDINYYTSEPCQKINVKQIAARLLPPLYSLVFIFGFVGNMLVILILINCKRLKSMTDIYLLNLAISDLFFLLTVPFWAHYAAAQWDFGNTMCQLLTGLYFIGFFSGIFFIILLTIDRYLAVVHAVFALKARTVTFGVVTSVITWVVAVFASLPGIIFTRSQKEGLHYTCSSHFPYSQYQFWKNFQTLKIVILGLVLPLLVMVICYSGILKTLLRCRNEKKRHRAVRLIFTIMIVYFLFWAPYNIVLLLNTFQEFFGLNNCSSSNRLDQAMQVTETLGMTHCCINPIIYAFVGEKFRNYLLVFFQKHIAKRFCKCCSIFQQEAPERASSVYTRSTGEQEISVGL

In the case of Maraviroc, the “MIP-1β-stimulated SELP expression in LP-9” value (CCR5) is reported as “effective in inhibiting MIP-1β-stimulated expression of SELF” and the “MIP-1β-stimulated SELP expression in LP-9” value (CCR5; listed as maraviroc) is reported as “negated SELP upregulation; also recorded: inhibited the upregulation of SELP”.

With `O=C(NOC[C@H](O)CO)c1ccc(F)c(F)c1Nc1ccc(I)cc1F` [PD0325901] the “SELP expression in LP-9” value (MEK) was “significantly decreased SELP expression”.

In the case of `O=P(O)(O)C(Cl)(Cl)P(=O)(O)O` [clodronate], the Metastasis (ovarian cancer xenograft) is given as “decreased metastasis”.

For IL-1ra: AAM-secreted ligand IL-1ra, the Extent of metastasis (HGSOC) is listed as “decrease the extent of metastasis”.

In the case of inclacumab, the “Efficacy for saphenous vein graft failure following coronary artery bypass surgery” value (P-selectin [1]) is given as “surgery (94-96). While inclacumab had low efficacy for this” and the Tolerability in patients [2] is given as “well tolerated”.

With `COc1ccc(C2CC(c3c(O)cc(C)oc3=O)=NCCS2)c(OC)c1` (stereo not drawn) [KF38789, reference compound] the “Colorectal cancer cell adhesion to LP-9 increased by MIP-1β” value (P-selectin [3]) was “abrogates the increased adhesion” and the “HGSOC adhesion to LP-9 increased by MIP-1β” value (P-selectin [4]) was “abrogated the increased adhesion”.

B1: crizanlizumab (antibody, chains of the INN, looked up, V domains shown)
VH: QVQLVQSGAEVKKPGASVKVSCKVSGYTFTSYDINWVRQAPGKGLEWMGWIYPGDGSIKYNEKFKGRVTMTVDKSTDTAYMELSSLRSEDTAVYYCARRGEYGNYEGAMDYWGQGTLVTVSS
VL: DIQMTQSPSSLSASVGDRVTITCKASQSVDYDGHSYMNWYQQKPGKAPKLLIYAASNLESGVPSRFSGSGSGTDFTLTISSLQPEDFATYYCQQSDENPLTFGGGTKVEIK
notes: monoclonal antibody against P-selectin
For B1, the “Effect on P-selectin-ligand binding” value (P-selectin [5]) is listed as “not only block ligand binding but also disrupt existing P-selectin-ligand interactions” and the Tolerability in patients [2] is listed as “well tolerated”.

B2: MIP-1β: recombinant chemokine MIP-1β (Peprotech; recombinant mouse MIP-1β in vivo) (protein, UniProt P13236 24-92, looked up)
C-C motif chemokine 4: APMGSDPPTACCFSYTARKLPRNFVVDYYETSSLCSQPAVVFQTKRSKQVCADPSESWVQEYVYDLELN
For B2, the “HGSOC adhesion to LP-9 treated with MIP-1β” value (LP-9 mesothelial cells) was “significantly increased adhesion”.
